US10028992B2, “Methods of treating muscular dystrophy” (BOARD OF REGENTS OF THE NEVADA SYSTEM OF HIGHER EDUCATION …, priority 2012, dated 2018)

System: α7 integrin promoter
Experiment: muscle cell-based assay: α7βgal+/− myoblasts/myotubes, LacZ reporter, β-galactosidase cleavage of FDG
Set-up: species or system mouse; Results in α7+/− β-galactosidase assay: scale not given here
Details: Myoblasts
Summary of the method: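 Primary α7βgal+/− mouse myoblasts (LacZ knocked into α7 integrin exon 1, promoter retained), differentiated; promoter activity read as β-galactosidase conversion of non-fluorescent FDG to fluorescein. Hits followed by dose-response, western analysis and myostatin counterscreen.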

Compound | Results in α7+/− β-galactosidase assay (0.5 uM) | Results in α7+/− β-galactosidase assay (1 uM) | Results in α7+/− β-galactosidase assay (5 uM) | Results in α7+/− β-galactosidase assay (10 uM) | Results in α7+/− β-galactosidase assay (20 uM) | Results in α7+/− β-galactosidase assay (40 uM)
NS(=O)(=O)c1ccc(NC(=O)CN2CCc3ccccc32)cc1 [drawing 654] | −0.2007 | −0.06684 | 0.3068 | 0.002758 | −0.1257 | −0.1195
CC(=O)C1=C(C)Nc2ncnn2C1c1ccc(C)cc1 (stereo not drawn) [drawing 655] | −0.08387 | 0.003197 | 0.2805 | −0.01305 | −0.1533 | −0.247
COc1ccc(OC)c(S(=O)(=O)Nc2c(NC3CCCCC3)c3ccccc3oc2=O)c1 [drawing 656] | −0.2127 | −0.1212 | 0.2955 | −0.031 | −0.2083 | −0.2716
CC(=O)Nc1ccc(NC(=O)C/C(C)=N/NC(=O)COc2cc(C)c(Br)cc2Br)cc1 [drawing 657] | −0.2303 | −0.07096 | 0.03872 | −0.07468 | −0.3089 | −0.4449
Cc1cccc(Cn2cnc3c(nnn3Cc3ccc(Cl)cc3)c2=O)c1 [drawing 658] | −0.04558 | 0.03537 | 0.1703 | −0.06567 | −0.2167 | −0.3491
CCOc1ccc(Br)cc1S(=O)(=O)Nc1ccc(C(=O)Nc2ccccc2OC)cc1 [drawing 659] | −0.08436 | 0.06885 | 0.1299 | −0.03674 | −0.08958 | −0.05546
O=C(NCc1ccccc1)c1csc(-c2cccnc2)n1 [drawing 660] | −0.1908 | −0.04939 | 0.2247 | 0.1255 | 0.2423 | 0.1166
O=C1C2CCCN2C(=O)N1CCCN1CCN(c2cccc(Br)c2)CC1 (stereo not drawn) [drawing 661] | 0.07667 | 0.0555 | 0.04982 | 0.05028 | 0.1016 | 0.1941
C=CCc1c(C)nc(-c2ccccc2)nc1N/N=C(\C)c1ccc(N)cc1 [drawing 662] | −0.00814 | −0.05498 | 0.04244 | 0.0834 | −0.05956 | −0.02989
CC(C)(C)c1csc(NC(=O)c2cccnc2)n1 [drawing 663] | 0.2482 | 0.1813 | 0.09125 | 0.06663 | −0.2863 | −0.3378
Cc1ccccc1/C=C1\C(=O)Nc2ccc(F)cc21 [drawing 664] | 0.2562 | 0.1979 | 0.05318 | 0.04838 | −0.109 | −0.1352
Cc1ccc2c(c1)/C(=C/c1ccccc1)C(=O)N2 [drawing 665] | 0.07717 | 0.02304 | 0.03576 | 0.07323 | −0.484 | −0.5725
COC(=O)c1ccccc1CC(=O)CSc1nc(O)c(-c2ccccc2)c(O)n1 [drawing 666] | 0.06548 | 0.01829 | 0.06613 | 0.1141 | 0.0713 | 0.08837
Cc1ccc2c(c1)/C(=C/c1ccccc1F)C(=O)N2 [drawing 667] | −0.02616 | 0.02782 | −0.04422 | −0.06595 | −0.1695 | −0.3533
CC(=O)Nc1ccc(-n2c(C)nc(=O)c(-c3ccccc3)c2C)cc1 [drawing 668] | 0.06264 | −0.004 | −0.1843 | −0.1948 | −0.4829 | −0.7384
CCc1nc2ccccc2c(C(=O)NCc2ccccc2)c1C [drawing 669] | 0.09233 | 0.1045 | 0.3581 | −0.08672 | 0.0466 | 0.1074
CCOC(=O)c1cc(-c2cccs2)nc2c1c(C)nn2-c1ccccn1 [drawing 670] | 0.09738 | 0.1342 | −0.1204 | −0.2068 | −0.3072 | −0.5198
